Experimental data from US7396837B2, “Antitumoral analogs of lamellarins” (Pharma Mar, S.A.U., priority 2002, dated 2008).
“Also recorded” adds a separate entry of the source. Like-named read-outs stand apart in the source and are kept apart here.

Columns and labels:
[1] = tested on: LoVo; experiment: SRB colorimetric cell growth inhibition assay, LoVo; type: cell-based; conditions: Homo sapiens; for GI50: GI=growth inhibition, read-out: GI50 LOVO; for CC50: LC=cell killing (cytotoxic effect), read-out: LC50 LOVO; for IC (TGI): TGI=total growth inhibition (cytostatic effect), read-out: TGI LOVO
Procedure, shortened: (§1)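 Continuous drug exposure of human cancer cells; SRB protein stain read-out; triplicate wells, mean ± SD; GI, TGI, LC computed.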

[2] = tested on: A-549; experiment: SRB colorimetric cell growth inhibition assay, A-549; type: cell-based; conditions: Homo sapiens, A549, A-549; for GI50: GI=growth inhibition, read-out: GI50 A-549; for CC50: LC=cell killing (cytotoxic effect), read-out: LC50 A-549; for IC (TGI): TGI=total growth inhibition (cytostatic effect), read-out: TGI A-549
Procedure, shortened: as §1

[3] = tested on: IGROV; experiment: SRB colorimetric cell growth inhibition assay, IGROV; type: cell-based
Procedure, shortened: as §1

[4] = tested on: K-562; experiment: SRB colorimetric cell growth inhibition assay, K-562; type: cell-based; conditions: Homo sapiens, K562, K-562; for GI50: GI=growth inhibition, read-out: GI50 K-562; for CC50: LC=cell killing (cytotoxic effect), read-out: LC50 K-562; for IC (TGI): TGI=total growth inhibition (cytostatic effect), read-out: TGI K-562
Procedure, shortened: as §1

[5] = tested on: DU-145; experiment: SRB colorimetric cell growth inhibition assay, DU-145; type: cell-based; conditions: Homo sapiens; for GI50: GI=growth inhibition, read-out: GI50 DU-145; for CC50: cell killing (cytotoxic effect), read-out: LC50 DU-145; for IC (TGI): total growth inhibition (cytostatic effect), read-out: TGI DU-145
Procedure, shortened: as §1

[6] = tested on: SK-BR-3; experiment: SRB colorimetric cell growth inhibition assay, SK-BR-3; type: cell-based; conditions: Homo sapiens; for GI50: GI=growth inhibition, read-out: GI50 SK-BR-3; for CC50: cell killing (cytotoxic effect), read-out: LC50 SK-BR-3; for IC (TGI): total growth inhibition (cytostatic effect), read-out: TGI SK-BR-3
Procedure, shortened: as §1

[7] = tested on: SK-MEL-28; experiment: SRB colorimetric cell growth inhibition assay, SK-MEL-28; type: cell-based; conditions: Homo sapiens, SK-MEL-28, MEL-28; for GI50: GI=growth inhibition, read-out: GI50 MEL-28; for CC50: cell killing (cytotoxic effect), read-out: LC50 MEL-28; for IC (TGI): total growth inhibition (cytostatic effect), read-out: TGI MEL-28
Procedure, shortened: as §1

[8] = biological target: T1, human topoisomerase I (Homo sapiens, UniProt P11387); experiment: Topoisomerase I DNA relaxation assay (supercoiled plasmid DNA); type: biochemical; conditions: supercoiled plasmid DNA, each compound tested at 1 μM, agarose gel with ethidium bromide
T1 sequence (P11387 1-765): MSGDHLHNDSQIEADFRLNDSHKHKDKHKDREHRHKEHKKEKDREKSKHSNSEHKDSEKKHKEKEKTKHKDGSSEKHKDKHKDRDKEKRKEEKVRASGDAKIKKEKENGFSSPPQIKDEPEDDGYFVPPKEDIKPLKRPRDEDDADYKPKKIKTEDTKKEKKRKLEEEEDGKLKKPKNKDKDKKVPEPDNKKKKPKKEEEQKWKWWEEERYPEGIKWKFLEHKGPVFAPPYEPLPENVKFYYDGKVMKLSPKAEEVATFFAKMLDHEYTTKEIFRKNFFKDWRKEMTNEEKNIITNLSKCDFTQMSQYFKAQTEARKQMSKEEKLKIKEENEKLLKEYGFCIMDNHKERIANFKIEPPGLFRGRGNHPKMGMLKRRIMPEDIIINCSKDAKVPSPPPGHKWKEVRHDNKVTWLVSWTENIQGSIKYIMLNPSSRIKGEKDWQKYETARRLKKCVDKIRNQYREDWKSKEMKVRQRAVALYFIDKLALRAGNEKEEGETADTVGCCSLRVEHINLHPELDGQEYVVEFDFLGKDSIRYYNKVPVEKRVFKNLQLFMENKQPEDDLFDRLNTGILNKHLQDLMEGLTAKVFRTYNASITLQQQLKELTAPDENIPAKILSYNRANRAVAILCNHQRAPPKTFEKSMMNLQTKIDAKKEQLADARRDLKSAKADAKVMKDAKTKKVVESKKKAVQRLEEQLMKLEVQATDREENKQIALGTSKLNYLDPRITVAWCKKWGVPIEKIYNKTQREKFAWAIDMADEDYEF
Procedure, shortened: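 Test compounds (1 μM each) were present during topoisomerase I relaxation of supercoiled plasmid DNA. Relaxation was assessed on ethidium bromide-stained agarose gels.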

[9] = tested on: IGROV-ET; experiment: SRB colorimetric cell growth inhibition assay, IGROV-ET (ET-743 resistant); type: cell-based; conditions: Homo sapiens, IGROV-ET; for GI50: GI=growth inhibition, read-out: GI50 IGROV-ET; for CC50: cell killing (cytotoxic effect), read-out: LC50 IGROV-ET; for IC (TGI): total growth inhibition (cytostatic effect), read-out: TGI IGROV-ET
Procedure, shortened: as §1

[10] = tested on: LoVo-Dox; experiment: SRB colorimetric cell growth inhibition assay, LoVo-Dox (MDR); type: cell-based
Procedure, shortened: as §1

[11] = tested on: PANC-1; experiment: SRB colorimetric cell growth inhibition assay, PANC-1; type: cell-based; conditions: Homo sapiens; for GI50: GI=growth inhibition, read-out: GI50 PANC-1; for CC50: LC=cell killing (cytotoxic effect), read-out: LC50 PANC-1; for IC (TGI): TGI=total growth inhibition (cytostatic effect), read-out: TGI PANC-1
Procedure, shortened: as §1

[12] = tested on: HT-29; experiment: SRB colorimetric cell growth inhibition assay, HT-29; type: cell-based; conditions: Homo sapiens; for GI50: GI=growth inhibition, read-out: GI50 HT-29; for CC50: LC=cell killing (cytotoxic effect), read-out: LC50 HT-29; for IC (TGI): TGI=total growth inhibition (cytostatic effect), read-out: TGI HT-29
Procedure, shortened: as §1

[13] = tested on: LNCaP; experiment: SRB colorimetric cell growth inhibition assay, LNCaP; type: cell-based; conditions: Homo sapiens, LNCaP, LN-caP; for GI50: GI=growth inhibition, read-out: GI50 LN-caP; for CC50: cell killing (cytotoxic effect), read-out: LC50 LN-caP; for IC (TGI): total growth inhibition (cytostatic effect), read-out: TGI LN-caP
Procedure, shortened: as §1

[14] = Homo sapiens, IGROV; GI=growth inhibition; read-out: GI50 IGROV
[15] = Homo sapiens, IGROV; cell killing (cytotoxic effect); read-out: LC50 IGROV
[16] = Homo sapiens, IGROV; total growth inhibition (cytostatic effect); read-out: TGI IGROV
[17] = Homo sapiens, LOVO-DOX; GI=growth inhibition; read-out: GI50 LOVO-DOX
[18] = Homo sapiens, LOVO-DOX; LC=cell killing (cytotoxic effect); read-out: LC50 LOVO-DOX
[19] = Homo sapiens, LOVO-DOX; TGI=total growth inhibition (cytostatic effect); read-out: TGI LOVO-DOX

COc1cc(-c2c3c4cc(OC)c(OC(=O)[C@@H]5CCCN5)cc4oc(=O)c3n3ccc4cc(OC(=O)[C@@H]5CCCN5)c(OC)cc4c23)ccc1OC(=O)[C@@H]1CCCN1 [Compound 33]
GI50 ([1]; LoVo): 153 nM
CC50 ([1]; LoVo): 726 nM
IC (TGI) ([1]; LoVo): 333 nM
GI50 [2]: 37.9 nM
CC50 [2]: 883 nM
IC (TGI) [2]: 154 nM
GI50 [3, 14]: 49.6 nM
CC50 [3, 15]: 4760 nM
IC (TGI) [3, 16]: 500 nM
GI50 [4]: 5.96 nM
CC50 [4]: 4030 nM
IC (TGI) [4]: 918 nM
GI50 ([5]; DU-145, DU-145): 18.6 nM
CC50 ([5]; DU-145, DU-145): 367 nM
IC (TGI) ([5]; DU-145, DU-145): 46 nM
GI50 ([6]; SK-BR-3, SK-BR-3): 30.5 nM
CC50 ([6]; SK-BR-3, SK-BR-3): 1440 nM
IC (TGI) ([6]; SK-BR-3, SK-BR-3): 168 nM
GI50 [7]: 41.1 nM
CC50 [7]: 2480 nM
IC (TGI) [7]: 198 nM
stimulation of DNA cleavage by topoisomerase I / inhibition of topoisomerase I (nicked DNA band) in DNA relaxation assay [8]: marked inhibition of topoisomerase I
GI50 [9]: 78.1 nM
CC50 [9]: 8830 nM
IC (TGI) [9]: 589 nM
GI50 [10, 17]: 198 nM
CC50 [10, 18]: 4330 nM
IC (TGI) [10, 19]: 558 nM
GI50 ([11]; PANC-1, PANC-1): 89.2 nM
CC50 ([11]; PANC-1, PANC-1): 8440 nM
IC (TGI) ([11]; PANC-1, PANC-1): 1060 nM
GI50 ([12]; HT-29, HT-29): 1340 nM
CC50 ([12]; HT-29, HT-29): 8740 nM
IC (TGI) ([12]; HT-29, HT-29): 3420 nM
GI50 [13]: 39.7 nM
CC50 [13]: 423 nM
IC (TGI) [13]: 155 nM

COc1cc(-c2c3n(c4c(=O)oc5cc(OC(=O)[C@H](NC(=O)OC(C)(C)C)C(C)C)c(OC)cc5c24)CCc2cc(OC(=O)[C@H](NC(=O)OC(C)(C)C)C(C)C)c(OC)cc2-3)ccc1OC(=O)[C@H](NC(=O)OC(C)(C)C)C(C)C [Compound 34]
CC50 ([1]; LoVo): 9100 nM
GI50 ([1]; LOVO): 840 nM
IC (TGI) ([1]; LOVO): 4020 nM
GI50 [2]: 1470 nM
CC50 [2]: 9100 nM
IC (TGI) [2]: 3710 nM
CC50 [3, 15]: 8740 nM
GI50 ([3]; Homo sapiens; IGROV; GI=growth inhibition; read-out: GI50 IGROV): 307 nM
IC (TGI) ([3]; Homo sapiens; IGROV; total growth inhibition (cytostatic effect); read-out: TGI IGROV): 2110 nM
GI50 [4]: 1040 nM
CC50 [4]: 6620 nM
IC (TGI) [4]: 2610 nM
CC50 ([5]; DU-145, DU-145): 6500 nM
GI50 ([5]; DU-145): 196 nM
IC (TGI) ([5]; DU-145): 588 nM
CC50 ([6]; SK-BR-3, SK-BR-3): 8950 nM
GI50 ([6]; SK-BR-3): 1180 nM
IC (TGI) ([6]; SK-BR-3): 3250 nM
GI50 [7]: 1360 nM
CC50 [7]: 5580 nM
IC (TGI) [7]: 2760 nM
stimulation of DNA cleavage by topoisomerase I / inhibition of topoisomerase I (nicked DNA band) in DNA relaxation assay [8]: No effect
GI50 [9]: 2070 nM
CC50 [9]: 9100 nM
IC (TGI) [9]: 4630 nM
GI50 [10, 17]: 9100 nM
CC50 [10, 18]: 9100 nM
IC (TGI) ([10]; Homo sapiens; LOVO-DOX; TGI=total growth inhibition (cytostatic effect); read-out: TGI LOVO-DOX): 9100 nM
CC50 ([11]; PANC-1, PANC-1): 9100 nM
IC (TGI) ([11]; PANC-1, PANC-1): 992 nM
GI50 ([11]; PANC-1): 301 nM
CC50 ([12]; HT-29, HT-29): 9100 nM
GI50 ([12]; HT-29): 1160 nM
IC (TGI) ([12]; HT-29): 5390 nM
GI50 [13]: 461 nM
CC50 [13]: 4110 nM
IC (TGI) [13]: 1570 nM

COc1cc(-c2c3c4cc(OC)c(OC(=O)[C@@H](N)C(C)C)cc4oc(=O)c3n3ccc4cc(OC(=O)[C@@H](N)C(C)C)c(OC)cc4c23)ccc1OC(=O)[C@@H](N)C(C)C [Compound 36]
GI50 ([1]; LoVo): 158 nM
CC50 ([1]; LoVo): 652 nM
IC (TGI) ([1]; LoVo): 321 nM
GI50 [2]: 32.8 nM
CC50 [2]: 1690 nM
IC (TGI) [2]: 154 nM
GI50 [3, 14]: 46.9 nM
CC50 [3, 15]: 7950 nM
IC (TGI) [3, 16]: 409 nM
GI50 [4]: 9.48 nM
CC50 [4]: 5700 nM
IC (TGI) [4]: 188 nM
GI50 ([5]; DU-145, DU-145): 10.8 nM
CC50 ([5]; DU-145, DU-145): 668 nM
IC (TGI) ([5]; DU-145, DU-145): 38.3 nM
GI50 ([6]; SK-BR-3, SK-BR-3): 39.6 nM
CC50 ([6]; SK-BR-3, SK-BR-3): 2940 nM
IC (TGI) ([6]; SK-BR-3, SK-BR-3): 221 nM
GI50 [7]: 31.9 nM
CC50 [7]: 2700 nM
IC (TGI) [7]: 181 nM
stimulation of DNA cleavage by topoisomerase I / inhibition of topoisomerase I (nicked DNA band) in DNA relaxation assay [8]: marked inhibition of topoisomerase I; also recorded: stimulated DNA cleavage by the enzyme
GI50 [9]: 76.5 nM
CC50 [9]: 8780 nM
IC (TGI) [9]: 540 nM
GI50 [10, 17]: 145 nM
CC50 [10, 18]: 8780 nM
IC (TGI) [10, 19]: 525 nM
GI50 ([11]; PANC-1, PANC-1): 169 nM
CC50 ([11]; PANC-1, PANC-1): 8780 nM
IC (TGI) ([11]; PANC-1, PANC-1): 1130 nM
GI50 ([12]; HT-29, HT-29): 1510 nM
CC50 ([12]; HT-29, HT-29): 8780 nM
IC (TGI) ([12]; HT-29, HT-29): 4080 nM
GI50 [13]: 42.8 nM
CC50 [13]: 424 nM
IC (TGI) [13]: 156 nM
